Data: ChEMBL document CHEMBL1201862, “PubChem BioAssay data set” (2004)
The source made the active and inactive calls.

Experiments:
[1] = target: T1, High affinity choline transporter 1 (Homo sapiens, UniProt Q9GZV3); assay: CHT inhibitors, dose response, cell-based, 5-point CRC, membrane potential dye (AID 504840); format: functional
T1 sequence (Q9GZV3 whole entry): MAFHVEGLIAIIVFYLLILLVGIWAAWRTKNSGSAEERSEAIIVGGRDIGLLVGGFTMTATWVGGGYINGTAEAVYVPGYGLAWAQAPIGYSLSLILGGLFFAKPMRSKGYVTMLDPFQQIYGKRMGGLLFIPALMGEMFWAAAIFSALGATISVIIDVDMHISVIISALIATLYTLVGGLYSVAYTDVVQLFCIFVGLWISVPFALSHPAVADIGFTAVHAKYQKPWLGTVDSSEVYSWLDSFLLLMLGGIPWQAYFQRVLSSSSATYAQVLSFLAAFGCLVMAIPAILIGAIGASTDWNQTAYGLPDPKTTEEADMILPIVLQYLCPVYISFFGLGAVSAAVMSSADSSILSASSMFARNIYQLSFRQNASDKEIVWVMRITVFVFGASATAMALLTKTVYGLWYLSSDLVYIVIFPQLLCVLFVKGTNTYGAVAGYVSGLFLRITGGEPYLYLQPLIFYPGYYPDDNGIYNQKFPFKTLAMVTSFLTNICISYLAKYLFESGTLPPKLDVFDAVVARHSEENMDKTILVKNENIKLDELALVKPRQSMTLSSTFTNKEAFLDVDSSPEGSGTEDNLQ

Large T antigen = Large T antigen (Simian virus 40, UniProt P03070); format: functional, Betapolyomavirus macacae;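 note: Confirmatory-stage PubChem screen for compounds that inhibit SV40 T antigen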
Large T antigen, sequence (P03070 whole entry): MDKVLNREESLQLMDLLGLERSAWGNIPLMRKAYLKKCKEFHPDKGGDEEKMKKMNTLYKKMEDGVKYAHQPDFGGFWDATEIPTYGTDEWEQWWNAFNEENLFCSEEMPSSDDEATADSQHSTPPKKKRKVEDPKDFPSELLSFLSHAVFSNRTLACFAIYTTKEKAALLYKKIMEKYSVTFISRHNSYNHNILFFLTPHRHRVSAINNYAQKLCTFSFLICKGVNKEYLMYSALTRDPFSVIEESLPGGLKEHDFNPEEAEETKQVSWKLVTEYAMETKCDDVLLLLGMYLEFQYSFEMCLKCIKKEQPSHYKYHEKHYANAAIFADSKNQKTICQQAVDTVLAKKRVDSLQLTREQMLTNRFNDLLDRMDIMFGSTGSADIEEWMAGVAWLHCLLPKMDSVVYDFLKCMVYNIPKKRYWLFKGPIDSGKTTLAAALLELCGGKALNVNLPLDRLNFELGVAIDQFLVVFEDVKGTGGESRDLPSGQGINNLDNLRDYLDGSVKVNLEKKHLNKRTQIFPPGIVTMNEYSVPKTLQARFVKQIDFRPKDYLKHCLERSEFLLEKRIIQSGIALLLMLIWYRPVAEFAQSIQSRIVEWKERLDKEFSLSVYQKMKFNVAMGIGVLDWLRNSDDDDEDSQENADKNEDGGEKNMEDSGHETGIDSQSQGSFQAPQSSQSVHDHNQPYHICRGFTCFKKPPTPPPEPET

H9c2 = assay: cells; format: functional, cell-based; details: Rattus norvegicus, H9c2, Myocardium;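 note: confirmatory concentration-response retest of ultra-high-throughput screening hits for modulation of myocardial damage; cell death induced by hydrogen peroxide oxidative stress; compound pretreatment for 60 min then peroxide exposure for 2 h; potency is for protecting the cells against peroxide damage rather than for killing them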
[2] = target: Luciferin 4-monooxygenase (Photinus pyralis, UniProt P08659); assay: firefly luciferase enzyme inhibitors, dose response, biochemical, luminescence (AID 1891)
Luciferin 4-monooxygenase, sequence (P08659 whole entry): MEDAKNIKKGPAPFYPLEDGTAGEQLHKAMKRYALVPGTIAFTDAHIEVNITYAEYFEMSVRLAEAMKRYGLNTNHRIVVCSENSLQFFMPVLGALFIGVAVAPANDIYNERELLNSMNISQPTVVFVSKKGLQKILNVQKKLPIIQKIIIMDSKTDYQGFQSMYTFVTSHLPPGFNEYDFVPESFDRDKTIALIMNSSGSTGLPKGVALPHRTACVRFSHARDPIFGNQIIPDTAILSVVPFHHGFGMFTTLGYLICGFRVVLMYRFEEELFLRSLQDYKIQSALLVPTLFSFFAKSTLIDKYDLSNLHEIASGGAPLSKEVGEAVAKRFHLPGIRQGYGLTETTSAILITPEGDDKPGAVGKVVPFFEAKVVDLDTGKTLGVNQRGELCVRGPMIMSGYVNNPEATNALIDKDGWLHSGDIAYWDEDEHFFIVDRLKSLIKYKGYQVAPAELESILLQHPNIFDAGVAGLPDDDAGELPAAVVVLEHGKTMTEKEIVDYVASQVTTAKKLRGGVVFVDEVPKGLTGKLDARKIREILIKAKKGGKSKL

[3] = Luminescence Cell-Based Dose Confirmation HTS to Identify Inhibitors of Platelet Dense Granule Release. [Related pubchem assays: 1663 (Primary HTS), 1678 (Summary of Project)]; format: functional
cells [4] = format: functional, cell-based
cells [5] = format: functional, cell-based; remark: listed apart in the source
Trypsin = Trypsin (Sus scrofa, UniProt P00761); assay: porcine trypsin inhibitors, dose response, selectivity assay for Rce1 protease inhibitor project, biochemical, quenched peptide fluorescence, cherry-pick (AID 488789)
Trypsin, sequence (P00761 whole entry): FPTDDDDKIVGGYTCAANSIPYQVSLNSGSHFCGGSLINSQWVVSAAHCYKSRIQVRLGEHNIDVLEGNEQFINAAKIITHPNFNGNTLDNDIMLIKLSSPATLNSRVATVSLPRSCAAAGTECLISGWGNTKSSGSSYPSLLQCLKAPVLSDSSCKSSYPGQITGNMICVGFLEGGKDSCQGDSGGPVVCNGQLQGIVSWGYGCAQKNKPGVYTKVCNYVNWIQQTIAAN

[6] = THP-1 cell cytotoxicity, dose response, cytotoxicity control for non-replicating M. tuberculosis project (AID 489025); format: functional
[7] = target: FAD-linked sulfhydryl oxidase ALR (Homo sapiens, UniProt P55789); assay: inhibitors of human ALR sulfhydryl oxidase, dose response, biochemical, H2O2 detection, luminescence, cherry-pick (AID 493248)
FAD-linked sulfhydryl oxidase ALR, sequence (P55789 whole entry): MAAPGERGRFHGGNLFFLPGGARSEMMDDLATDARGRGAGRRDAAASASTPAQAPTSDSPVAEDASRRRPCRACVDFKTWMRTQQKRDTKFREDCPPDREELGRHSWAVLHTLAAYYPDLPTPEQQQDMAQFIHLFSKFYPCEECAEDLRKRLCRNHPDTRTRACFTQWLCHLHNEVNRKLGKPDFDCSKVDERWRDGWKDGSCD

[8] = target: T2, Rac GTPase-activating protein 1 (Homo sapiens, UniProt Q9H0H5); assay: MgcRacGAP GTPase-activating activity inhibitors, confirmation, biochemical, ADP Hunter fluorescence, primary and confirmatory (AID 624330); format: functional
T2 sequence (Q9H0H5 whole entry): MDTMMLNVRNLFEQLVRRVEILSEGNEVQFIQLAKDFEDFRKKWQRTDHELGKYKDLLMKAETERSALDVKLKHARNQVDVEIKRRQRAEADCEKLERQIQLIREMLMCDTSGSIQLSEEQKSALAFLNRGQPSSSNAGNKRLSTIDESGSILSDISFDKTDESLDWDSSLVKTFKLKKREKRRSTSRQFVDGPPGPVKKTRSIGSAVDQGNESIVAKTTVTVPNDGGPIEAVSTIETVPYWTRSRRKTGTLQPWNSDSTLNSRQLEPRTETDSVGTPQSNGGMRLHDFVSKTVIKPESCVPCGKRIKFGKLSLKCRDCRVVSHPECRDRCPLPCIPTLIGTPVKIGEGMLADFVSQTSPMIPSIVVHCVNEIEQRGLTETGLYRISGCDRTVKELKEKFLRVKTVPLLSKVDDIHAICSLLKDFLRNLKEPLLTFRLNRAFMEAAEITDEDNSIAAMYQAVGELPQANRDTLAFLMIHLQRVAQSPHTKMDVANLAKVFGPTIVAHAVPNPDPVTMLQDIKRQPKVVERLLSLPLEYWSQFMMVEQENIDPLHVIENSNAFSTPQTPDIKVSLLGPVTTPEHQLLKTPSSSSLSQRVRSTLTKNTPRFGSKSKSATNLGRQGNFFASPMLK

Genome polyprotein = Genome polyprotein (dengue virus type 2, UniProt P29990); assay: Dengue-2 NS5 methyltransferase inhibitors, primary screen, biochemical, confirmation dose response (AID 588689); format: functional
Genome polyprotein, sequence (P29990 2492-3391 limits assumed): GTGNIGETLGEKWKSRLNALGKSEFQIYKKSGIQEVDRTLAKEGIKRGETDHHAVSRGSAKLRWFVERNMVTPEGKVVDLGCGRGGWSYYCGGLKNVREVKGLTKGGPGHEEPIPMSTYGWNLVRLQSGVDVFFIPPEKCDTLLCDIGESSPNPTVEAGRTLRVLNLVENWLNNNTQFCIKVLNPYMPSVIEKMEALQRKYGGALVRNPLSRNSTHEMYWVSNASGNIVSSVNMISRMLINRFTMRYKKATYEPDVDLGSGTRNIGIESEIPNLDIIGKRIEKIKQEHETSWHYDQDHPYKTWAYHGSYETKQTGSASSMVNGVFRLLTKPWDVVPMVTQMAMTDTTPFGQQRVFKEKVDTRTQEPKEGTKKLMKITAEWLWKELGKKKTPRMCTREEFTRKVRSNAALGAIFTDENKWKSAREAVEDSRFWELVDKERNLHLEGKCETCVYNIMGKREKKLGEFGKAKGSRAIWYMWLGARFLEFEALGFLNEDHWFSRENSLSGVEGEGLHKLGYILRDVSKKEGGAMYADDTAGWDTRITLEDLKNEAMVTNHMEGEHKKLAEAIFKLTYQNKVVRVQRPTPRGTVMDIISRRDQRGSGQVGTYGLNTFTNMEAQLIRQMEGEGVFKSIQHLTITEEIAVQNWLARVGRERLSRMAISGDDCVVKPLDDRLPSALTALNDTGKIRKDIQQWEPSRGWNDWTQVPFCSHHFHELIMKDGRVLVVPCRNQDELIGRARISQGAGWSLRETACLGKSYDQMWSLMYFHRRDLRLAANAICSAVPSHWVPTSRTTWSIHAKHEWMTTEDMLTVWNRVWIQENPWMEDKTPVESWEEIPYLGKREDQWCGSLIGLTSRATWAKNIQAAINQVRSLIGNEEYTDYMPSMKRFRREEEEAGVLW

Vero = assay: cells; format: functional; details: Chlorocebus sabaeus
H4 = assay: Luminescence Cell-Based Dose Response HTS to Identify Activators of 5'UTR Stem-Loop Driven Prion Protein mRNA Translation in H4 Neuroglioblastoma Cells. [Related pubchem assays: 1829 (Project Summary), 1814 (Primary HTS)]; format: functional; details: Homo sapiens
[9] = Luminescence Cell-Based Dose Response HTS to Identify Activators of Luciferase Translation or Activity in H4 […] Cells. [Related pubchem assays: 1829 (Project Summary), 1814 (Primary HTS)]; format: functional
Nonstructural protein 1 = Nonstructural protein 1 (Influenza A virus, UniProt Q194T2); format: functional, Influenza A virus (A/California/07/2009(H1N1))
Nonstructural protein 1, sequence (Q194T2 whole entry): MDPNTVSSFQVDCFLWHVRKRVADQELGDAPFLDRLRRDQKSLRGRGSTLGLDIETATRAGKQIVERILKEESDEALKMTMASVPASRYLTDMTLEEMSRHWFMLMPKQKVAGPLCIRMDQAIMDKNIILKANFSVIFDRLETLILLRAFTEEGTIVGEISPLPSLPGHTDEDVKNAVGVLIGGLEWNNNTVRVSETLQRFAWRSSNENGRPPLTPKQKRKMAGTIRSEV

[10] = Luminescence Cell-Based Dose Confirmation HTS to Identify Activators of 5'UTR Stem-Loop Driven Alpha-Synuclein mRNA Translation in H4 Neuroglioblastoma Cells. [Related pubchem assays: 1829 (Project Summary), 1814 (Primary HTS)]; format: functional
Protein skinhead-1 = target: T3, Protein skinhead-1 (Caenorhabditis elegans, UniProt P34707); format: functional
T3 sequence (P34707 whole entry): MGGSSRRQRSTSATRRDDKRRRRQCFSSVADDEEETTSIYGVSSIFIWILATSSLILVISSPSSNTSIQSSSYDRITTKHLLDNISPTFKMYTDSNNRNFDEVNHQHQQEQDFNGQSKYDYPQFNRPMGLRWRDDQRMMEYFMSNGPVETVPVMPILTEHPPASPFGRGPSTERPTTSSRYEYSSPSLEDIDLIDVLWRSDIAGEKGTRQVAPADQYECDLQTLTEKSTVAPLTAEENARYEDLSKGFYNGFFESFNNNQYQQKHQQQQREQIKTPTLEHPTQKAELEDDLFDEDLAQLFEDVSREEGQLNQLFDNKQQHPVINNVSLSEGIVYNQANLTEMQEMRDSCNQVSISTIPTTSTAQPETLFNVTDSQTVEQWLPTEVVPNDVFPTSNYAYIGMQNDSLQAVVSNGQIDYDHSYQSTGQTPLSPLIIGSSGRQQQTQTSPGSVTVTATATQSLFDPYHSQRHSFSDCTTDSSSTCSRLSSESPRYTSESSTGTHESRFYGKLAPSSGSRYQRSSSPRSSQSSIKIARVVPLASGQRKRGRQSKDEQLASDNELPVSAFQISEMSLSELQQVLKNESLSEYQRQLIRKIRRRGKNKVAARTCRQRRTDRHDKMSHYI

INS1 = assay: beta cell apoptosis inhibitors, cytokine rescue, dose response, luminescence, retest (AID 449756); format: functional, cell-based; details: Rattus norvegicus;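 note: cell death triggered by IL-1 beta plus TNF-alpha plus IFN-gamma mixture; protective hits raise ATP signal compared with cytokine alone wells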
[11] = inhibitors of clade B AD8 Env fusion, dose response, cell-based, cherry-pick (AID 652062); format: functional;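 note: luciferase signal from cell-cell fusion driven by HIV-1 clade B AD8 Env; potency is for inhibitors of fusion seen as a drop in luminescence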
[12] = target: T4, Ubiquitin-conjugating enzyme E2 N (Homo sapiens, UniProt P61088); format: functional;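 note: Dose-response confirmation in a TR-FRET assay detecting UBC13-driven polyubiquitin chain formation, inhibition measured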
T4 sequence (P61088 whole entry): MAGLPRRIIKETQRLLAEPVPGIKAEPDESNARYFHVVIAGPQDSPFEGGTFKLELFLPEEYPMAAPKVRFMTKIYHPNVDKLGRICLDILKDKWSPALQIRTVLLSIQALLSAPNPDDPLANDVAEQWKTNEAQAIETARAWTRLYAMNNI

[13] = HEp-2 cell cytotoxicity, dose response, cytotoxicity control for RSV inhibitor project, HTS (AID 2410); format: functional; details: human respiratory syncytial virus

With `O=C(NCCCn1ccnc1)c1cn(-c2ccccc2)nc1-c1ccc(F)cc1` the IC50 [1] was 11.5 µM (active).

For `CCN(CC)CCN1C(=O)C(O)=C(C(=O)c2ccc(C)cc2)C1c1cccnc1` (stereo unspecified), the IC50 (Large T antigen) was 18.9 µM (active).

With `CCOC(=O)N1CCC(N2C(=O)c3ccccc3C2Nc2cc(OC)c(OC)c(OC)c2)CC1` (stereo unspecified) the IC50 (H9c2) was > 79 µM (inactive), the EC50 [2] was > 112 µM (not active) and the EC50 [3] was 94.3 µM (active).

For `Cc1ccc(C2=NOC(=O)/C2=C\c2ccccc2)cc1`, the EC50 (cells [4]) was > 350 µM (not active) and the EC50 (cells [5]) was > 350 µM (not active).

With `Fc1ccccc1N=C(S)Nc1ccc(Br)cc1` the EC50 (cells [4]) was 169 µM (active) and the EC50 (cells [5]) was > 350 µM (not active).

With `COc1ccccc1N1CCN(C(=O)c2coc(=O)c(Br)c2)CC1` the AC50 (Trypsin) was 9.18 µM (active).

With `Cn1c(-c2cccc([N+](=O)[O-])c2)cnc1NCc1cccc(F)c1` the CC50 [6] was > 40 µM (active) and the AC50 [7] was 1.92 µM (active).

With `Cc1ccccc1N1C(=O)NC(=O)/C(=C\c2cnn(-c3ccccc3)c2)C1=O` the IC50 [8] was 118 µM (active), the IC50 (Large T antigen) was 44.9 µM (active) and the IC50 (Genome polyprotein) was > 100 µM (active).

For `CCOC(=O)c1cnc(SCc2ccc(Cl)c(Cl)c2)nc1N1CC1`, the CC50 (Vero) was > 25 µM (active).

In the case of `O=[N+]([O-])c1ccccc1NCCOc1ccccc1`, the EC50 (H4) is reported as 5.5 µM (active), the EC50 [9] is reported as 24 µM (active) and the IC50 (Nonstructural protein 1) is reported as > 100 µM (active). For the same compound, the EC50 [10] was 23.6 µM (active) and the IC50 (Protein skinhead-1) was 96.3 µM (inactive).

For `CN1Cc2sc(N)c(C#N)c2CC1(C)C`, the IC50 [1] was 22.9 µM (active).

With `CCN(CC)c1ccc(N=C2C(=O)Nc3ccccc32)cc1` the AC50 (INS1) was 20.2 µM (active), the IC50 (Nonstructural protein 1) was 14.3 µM (active) and the IC50 (Genome polyprotein) was > 100 µM (active). The AC50 [7] was 2.06 µM (active).

For `NC(=O)C1CCCN(Cc2c(C(=O)N3CCc4ccccc4C3)nc3ccc(Cl)cn23)C1` (stereo unspecified), the EC50 (cells [4]) was > 350 µM (not active) and the EC50 (cells [5]) was > 350 µM (not active).

For `CC(C)(C)C1=CC(=Nc2ccccc2N)C=C(C(C)(C)C)C1=O`, the IC50 (Nonstructural protein 1) was 10.9 µM (active).

With `CCCNC(=O)C[C@H]1C[C@H]2c3cc(NC(=O)CN(C)C)ccc3O[C@H]2[C@@H](CO)O1` the AC50 [11] was 38.6 µM (active).

For `CC1CC(C)(C)CC2(C1)NC(=O)N(CC(=O)Nc1ccc3[nH]c(O)nc3c1)C2=O` (stereo unspecified), the IC50 [12] was > 20 µM (inactive).

With `COc1ccc(C(=O)NC(Cc2ccc(OC(=O)c3ccc(OC)cc3)cc2)C(=O)O)cc1` (stereo unspecified) the IC50 [1] was 9.12 µM (active).

In the case of `COC(=O)c1ccccc1NC(=O)COC(=O)c1ccccc1N=Nc1ccc(N(C)C)cc1`, the IC50 (Nonstructural protein 1) is reported as 21.4 µM (active).

For `CN(C)c1ccc(NC(=O)CN2CCC(O)(c3ccccc3)CC2)cc1`, the IC50 (Large T antigen) was 7.29 µM (active).

For `CCn1ncc(CN2CCCC(C(=O)Nc3cccc(-c4cc5ccccc5[nH]4)c3)C2)c1C` (stereo unspecified), the CC50 [13] was 16.1 µM (active) and the IC50 (Nonstructural protein 1) was > 100 µM (active).

With `COC(=O)c1ccc(-n2cncn2)c([N+](=O)[O-])c1` the EC50 (cells [4]) was > 350 µM (not active) and the EC50 (cells [5]) was > 350 µM (not active).

For `CCC[C@@H](CN1CCC[C@H]1CN1C(N)=NC[C@H]1CC(C)C)N1C[C@@H]([C@H](C)CC)N(CCCC2CCCC2)C1=N`, the IC50 [12] was > 20 µM (inactive).

In the case of `O=C1ON=C(c2ccccc2)/C1=C/c1ccc(OS(=O)(=O)c2ccccc2)cc1`, the IC50 (Large T antigen) is reported as 67.3 µM (active) and the IC50 (Genome polyprotein) is reported as 32.3 µM (active).

With `O=C(CCNC(=O)Cn1ccc2ccccc2c1=O)NCCN1CCN(c2ccccc2F)CC1` the IC50 [12] was > 20 µM (inactive).

For `CCOc1nc(Nc2ccc(OC)cc2)nc(OCC)n1`, the EC50 (cells [4]) was > 350 µM (not active) and the EC50 (cells [5]) was > 350 µM (not active).

With `CCn1cnc2cc(NCc3ccc(N(C)C)cc3)ccc21` the IC50 (Large T antigen) was 15.8 µM (active) and the AC50 [7] was 5.86 µM (active).
